Data set [1] deals with T1, human bile salt export pump (BSEP) (Homo sapiens, UniProt O95342).
T1 construct: expressed in transfected cells; host or cells: Sf9 cell membrane vesicles
As to the kind of experiment: Inhibition of hepatic transporter BSEP, Sf9 cell membrane vesicles. Type of data set: biochemical. Here is the method:
(§1) Inhibition constants (IC50) were measured for human bile salt export pump (BSEP), sodium taurocholate cotransporting polypeptide (NTCP), multidrug resistance protein 2 (MRP2), P-glycoprotein (Pgp), breast cancer resistance protein (BCRP), organic anion-transporting polypeptide 1B1 (OATP1B1), and OATP1B3 in transfected cell-lines. Known inhibitors were used as positive controls.

Data set [2] concerns the target T2, sodium taurocholate cotransporting polypeptide (NTCP) (Homo sapiens, UniProt Q14973).
T2 construct: expressed in transfected cells; host or cells: Chinese Hamster Ovary (CHO)
T2 sequence (Q14973 1-349): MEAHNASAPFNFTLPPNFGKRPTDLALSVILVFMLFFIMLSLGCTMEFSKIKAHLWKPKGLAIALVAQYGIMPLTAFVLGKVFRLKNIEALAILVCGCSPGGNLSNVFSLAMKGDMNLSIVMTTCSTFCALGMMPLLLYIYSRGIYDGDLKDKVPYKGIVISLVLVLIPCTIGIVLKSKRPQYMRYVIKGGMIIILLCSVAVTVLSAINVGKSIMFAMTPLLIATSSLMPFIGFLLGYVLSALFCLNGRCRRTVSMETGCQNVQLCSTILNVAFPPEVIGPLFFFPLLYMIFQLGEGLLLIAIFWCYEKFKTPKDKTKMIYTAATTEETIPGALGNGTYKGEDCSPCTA
As to the kind of experiment: Inhibition of hepatic transporter NTCP, transfected CHO cells. Type of data set: cell-based. Here is the method: as §1

In data set [3] the target is T3, P-glycoprotein (Pgp) (Homo sapiens, UniProt P08183).
T3 construct: expressed in transfected cells; host or cells: Madin-Darby canine kidney strain II (MDCKII)
As to the kind of experiment: Inhibition of Pgp, transfected MDCKII cells. Type of data set: cell-based. Here is the method:
as §1

The target of data set [4] is T4, breast cancer resistance protein (BCRP) (Homo sapiens, UniProt Q9UNQ0).
T4 construct: expressed in transfected cells; host or cells: MDCKII
T4 sequence (Q9UNQ0 1-655): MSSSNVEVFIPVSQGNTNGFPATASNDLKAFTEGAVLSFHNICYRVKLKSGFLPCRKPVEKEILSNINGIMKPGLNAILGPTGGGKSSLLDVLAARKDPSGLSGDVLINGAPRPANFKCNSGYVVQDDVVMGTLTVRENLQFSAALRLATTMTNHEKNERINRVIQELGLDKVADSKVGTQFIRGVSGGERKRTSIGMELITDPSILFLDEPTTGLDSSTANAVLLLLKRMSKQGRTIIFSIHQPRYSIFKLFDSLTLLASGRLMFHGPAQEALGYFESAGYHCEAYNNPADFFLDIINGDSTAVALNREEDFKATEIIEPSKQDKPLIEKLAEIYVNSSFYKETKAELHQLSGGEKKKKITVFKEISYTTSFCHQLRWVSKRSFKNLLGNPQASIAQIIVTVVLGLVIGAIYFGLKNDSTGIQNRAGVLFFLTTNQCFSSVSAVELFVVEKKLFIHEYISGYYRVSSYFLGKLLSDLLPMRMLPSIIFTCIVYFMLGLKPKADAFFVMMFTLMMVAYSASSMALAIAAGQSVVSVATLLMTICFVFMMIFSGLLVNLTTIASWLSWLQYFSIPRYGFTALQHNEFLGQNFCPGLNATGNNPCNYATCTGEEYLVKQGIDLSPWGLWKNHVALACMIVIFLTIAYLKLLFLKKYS
As to the kind of experiment: Inhibition of BCRP, transfected MDCKII cells. Type of data set: cell-based. Here is the method: as §1

The target of data set [5] is T5, organic anion-transporting polypeptide 1B1 (OATP1B1) (Homo sapiens, UniProt Q9Y6L6).
T5 construct: expressed in transfected cells; host or cells: CHO
T5 sequence (Q9Y6L6 1-691): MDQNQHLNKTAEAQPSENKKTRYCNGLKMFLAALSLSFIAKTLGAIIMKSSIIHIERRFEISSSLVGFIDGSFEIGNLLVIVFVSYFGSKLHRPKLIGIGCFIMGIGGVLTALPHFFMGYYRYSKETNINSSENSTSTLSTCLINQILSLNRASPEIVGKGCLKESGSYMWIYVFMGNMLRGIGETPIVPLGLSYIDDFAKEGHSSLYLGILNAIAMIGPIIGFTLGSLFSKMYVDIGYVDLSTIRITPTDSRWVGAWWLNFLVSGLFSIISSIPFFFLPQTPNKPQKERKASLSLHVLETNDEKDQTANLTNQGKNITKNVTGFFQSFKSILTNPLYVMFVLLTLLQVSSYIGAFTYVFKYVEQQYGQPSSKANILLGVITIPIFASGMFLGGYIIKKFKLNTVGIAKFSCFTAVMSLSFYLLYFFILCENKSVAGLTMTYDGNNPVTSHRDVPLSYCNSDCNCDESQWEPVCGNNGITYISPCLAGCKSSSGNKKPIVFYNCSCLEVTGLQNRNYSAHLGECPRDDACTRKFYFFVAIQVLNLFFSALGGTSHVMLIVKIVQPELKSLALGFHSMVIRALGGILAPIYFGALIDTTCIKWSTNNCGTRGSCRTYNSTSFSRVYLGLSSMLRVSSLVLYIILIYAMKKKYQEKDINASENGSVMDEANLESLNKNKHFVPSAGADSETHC
As to the kind of experiment: Inhibition of OATP1B1, transfected CHO cells. Type of data set: cell-based. Here is the method:
as §1

The target of data set [6] is T6, OATP1B3 (Homo sapiens, UniProt Q9NPD5).
T6 construct: expressed in transfected cells; host or cells: CHO
T6 sequence (Q9NPD5 1-702): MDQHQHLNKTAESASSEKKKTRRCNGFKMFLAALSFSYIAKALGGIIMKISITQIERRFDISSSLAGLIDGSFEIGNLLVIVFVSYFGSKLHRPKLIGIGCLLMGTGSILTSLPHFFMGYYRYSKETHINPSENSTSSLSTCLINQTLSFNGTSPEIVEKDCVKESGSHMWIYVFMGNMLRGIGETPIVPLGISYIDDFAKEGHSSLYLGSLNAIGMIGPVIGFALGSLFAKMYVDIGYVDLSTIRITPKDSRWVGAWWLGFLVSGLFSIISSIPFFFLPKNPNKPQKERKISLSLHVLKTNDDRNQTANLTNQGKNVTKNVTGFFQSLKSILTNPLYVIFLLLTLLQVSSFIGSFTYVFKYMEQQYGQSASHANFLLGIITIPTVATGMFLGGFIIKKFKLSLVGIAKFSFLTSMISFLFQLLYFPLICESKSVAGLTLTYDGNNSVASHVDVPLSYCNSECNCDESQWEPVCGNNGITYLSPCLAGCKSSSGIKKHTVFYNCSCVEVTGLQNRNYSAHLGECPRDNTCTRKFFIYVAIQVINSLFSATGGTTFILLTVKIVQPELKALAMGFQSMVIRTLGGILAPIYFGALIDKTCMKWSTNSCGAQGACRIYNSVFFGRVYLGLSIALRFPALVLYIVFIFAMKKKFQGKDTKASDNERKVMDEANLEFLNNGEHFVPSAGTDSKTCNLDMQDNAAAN
Put plainly: Inhibition of OATP1B3, transfected CHO cells. The following applies: OAT1B3. Type of data set: cell-based. Here is the method: as §1

The subject of data set [7] is human hepatocytes. The following applies: cited from earlier work.

Molecules are shown by their SMILES.

T1 sequence (O95342 whole entry): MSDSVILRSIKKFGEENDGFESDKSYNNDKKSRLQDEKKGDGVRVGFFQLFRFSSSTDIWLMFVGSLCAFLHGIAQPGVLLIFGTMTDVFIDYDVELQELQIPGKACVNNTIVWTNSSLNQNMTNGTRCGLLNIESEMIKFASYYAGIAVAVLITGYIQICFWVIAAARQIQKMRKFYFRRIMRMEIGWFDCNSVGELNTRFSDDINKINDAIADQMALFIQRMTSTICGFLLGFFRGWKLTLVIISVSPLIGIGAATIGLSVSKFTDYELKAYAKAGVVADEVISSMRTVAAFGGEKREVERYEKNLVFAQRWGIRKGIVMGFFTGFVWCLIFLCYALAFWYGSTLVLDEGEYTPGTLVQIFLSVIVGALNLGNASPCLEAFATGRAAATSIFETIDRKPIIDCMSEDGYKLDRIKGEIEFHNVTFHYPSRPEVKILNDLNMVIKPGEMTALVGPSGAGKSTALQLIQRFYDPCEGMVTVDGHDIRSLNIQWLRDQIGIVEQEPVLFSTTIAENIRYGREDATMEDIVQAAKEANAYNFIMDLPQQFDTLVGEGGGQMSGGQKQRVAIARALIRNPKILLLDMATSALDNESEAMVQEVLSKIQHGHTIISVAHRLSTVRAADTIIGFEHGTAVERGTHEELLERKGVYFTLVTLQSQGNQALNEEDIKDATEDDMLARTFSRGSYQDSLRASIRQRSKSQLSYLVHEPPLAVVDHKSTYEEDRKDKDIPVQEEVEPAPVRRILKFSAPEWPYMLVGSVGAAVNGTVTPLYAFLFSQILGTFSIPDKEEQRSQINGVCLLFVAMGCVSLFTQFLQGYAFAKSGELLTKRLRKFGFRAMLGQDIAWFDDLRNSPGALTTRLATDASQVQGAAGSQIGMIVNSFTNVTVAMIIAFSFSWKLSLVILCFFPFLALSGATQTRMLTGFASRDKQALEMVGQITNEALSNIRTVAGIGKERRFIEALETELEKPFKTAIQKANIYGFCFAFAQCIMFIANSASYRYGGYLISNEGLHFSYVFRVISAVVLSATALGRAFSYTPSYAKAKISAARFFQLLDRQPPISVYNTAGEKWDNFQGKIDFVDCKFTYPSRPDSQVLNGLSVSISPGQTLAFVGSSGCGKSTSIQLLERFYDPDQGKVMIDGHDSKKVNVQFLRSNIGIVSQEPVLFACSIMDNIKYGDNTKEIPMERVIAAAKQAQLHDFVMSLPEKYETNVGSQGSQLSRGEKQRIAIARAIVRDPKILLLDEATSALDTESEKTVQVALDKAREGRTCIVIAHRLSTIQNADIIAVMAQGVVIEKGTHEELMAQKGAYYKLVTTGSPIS
T3 sequence (P08183 whole entry): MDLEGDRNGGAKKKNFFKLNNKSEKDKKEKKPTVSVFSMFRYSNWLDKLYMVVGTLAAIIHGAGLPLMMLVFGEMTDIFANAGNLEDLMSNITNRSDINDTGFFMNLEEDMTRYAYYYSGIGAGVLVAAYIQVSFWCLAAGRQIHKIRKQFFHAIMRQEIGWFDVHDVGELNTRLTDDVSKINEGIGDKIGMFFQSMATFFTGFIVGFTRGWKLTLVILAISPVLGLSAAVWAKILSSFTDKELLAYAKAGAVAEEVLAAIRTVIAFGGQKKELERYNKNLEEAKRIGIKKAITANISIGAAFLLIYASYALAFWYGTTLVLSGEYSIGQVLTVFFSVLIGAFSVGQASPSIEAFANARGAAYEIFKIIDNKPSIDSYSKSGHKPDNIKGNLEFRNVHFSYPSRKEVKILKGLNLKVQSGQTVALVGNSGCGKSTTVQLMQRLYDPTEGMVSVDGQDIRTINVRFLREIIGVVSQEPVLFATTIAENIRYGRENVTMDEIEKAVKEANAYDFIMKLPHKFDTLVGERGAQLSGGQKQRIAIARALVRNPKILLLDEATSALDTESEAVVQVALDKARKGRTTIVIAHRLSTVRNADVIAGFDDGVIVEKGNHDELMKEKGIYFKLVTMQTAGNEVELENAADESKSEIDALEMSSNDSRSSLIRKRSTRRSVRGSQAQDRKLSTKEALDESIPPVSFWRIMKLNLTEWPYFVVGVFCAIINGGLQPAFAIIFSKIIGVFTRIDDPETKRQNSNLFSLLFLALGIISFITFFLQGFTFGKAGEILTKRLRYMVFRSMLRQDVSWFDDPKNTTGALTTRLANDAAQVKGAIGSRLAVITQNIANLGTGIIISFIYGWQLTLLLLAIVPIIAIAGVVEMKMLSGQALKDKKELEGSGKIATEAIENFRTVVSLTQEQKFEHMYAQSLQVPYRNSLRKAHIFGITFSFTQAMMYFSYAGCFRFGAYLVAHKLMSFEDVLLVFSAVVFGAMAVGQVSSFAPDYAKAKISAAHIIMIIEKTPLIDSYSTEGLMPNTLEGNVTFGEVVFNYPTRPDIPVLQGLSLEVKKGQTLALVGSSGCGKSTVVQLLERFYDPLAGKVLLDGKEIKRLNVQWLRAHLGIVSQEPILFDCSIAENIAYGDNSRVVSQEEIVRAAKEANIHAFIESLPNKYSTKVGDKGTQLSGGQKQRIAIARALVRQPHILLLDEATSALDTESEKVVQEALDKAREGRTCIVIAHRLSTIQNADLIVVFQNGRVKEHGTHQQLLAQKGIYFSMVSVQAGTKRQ

Usually IC50 stands for the concentration needed to halve the response being measured. For `CCCNS(=O)(=O)Nc1ncnc(OCCOc2ncc(Br)cn2)c1-c1ccc(Br)cc1` [Macitentan, N-[5-(4-bromophenyl)-6-(2-(5-bromopyrimidin-2-yloxy)ethoxy)-pyrimidin-4-yl]-N′-propylaminosulfonamide], in data set [1], the “effect on BSEP” value is “inhibition was observed”. The half-inhibitory concentration (IC50) is 12 µM in data set [1] (BSEP); 8 µM in data set [2] (NTCP); 64 ± 15 µM in data set [3]; 75 ± 37 µM in data set [4]; 2 ± 0.3 µM in data set [5]; 2.1 ± 0.3 µM in data set [6]. For the same compound, the “effect on NTCP” value in data set [2] is “inhibition was observed”.
In the case of `COc1cc(OC)nc(O[C@H](C(=O)O)C(OC)(c2ccccc2)c2ccccc2)n1` [darusentan], in data set [7], the “effect on hepatobiliary transporter activity” value was “less potent”.
With `Cc1cc2c(cc1CC(=O)c1sccc1S(=O)(=O)Nc1onc(C)c1Cl)OCO2` [sitaxsentan], in data set [7], the “effect on hepatobiliary transporter activity” value is “decreased transporter activity to the greatest extent”.

Values taken from patent US20140275094A1, “METHOD FOR TREATING PULMONARY ARTERIAL HYPERTENSION IN A PATIENT NOT HAVING IDIOPATHIC PULMONARY FIBROSIS” (GILEAD SCIENCES, INC., priority 2012, published 2014).
